Measurements from patent US7947707B2, “Nitrogenated heterocyclic compound and pharmaceutical composition comprising the same” (Kissei Pharmaceutical Co., Ltd., priority 2005, dated 2011).

Key:
[1] = target: T1, xanthine oxidase (from buttermilk) (Bos taurus, UniProt P80457); assay: Xanthine oxidase inhibitory effect; format: biochemical; settings: 100 μmol/L xanthine, 5 mU/mL enzyme; read-out: X.O. inhibition IC50
T1 construct: xanthine oxidase (from buttermilk; biozyme laboratories); purchased biozyme laboratories; host or cells: buttermilk (natural source)
Procedure: Assay for inhibition of xanthine oxidase was performed in 100 μmol/L substrate concentration (final concentration), 5 mU/mL enzyme concentration (final concentration) and compounds of the present invention as test compounds which were prepared with xanthine oxidase (from buttermilk; biozyme laboratories), xanthine (Sigma) and phosphate-buffered saline (PBS). In addition, all test compounds were frozen for preservation in condition of 20 mmol/L DMSO solution and used for experiments after thawing at need. Method is following: after diluted solution of test compound was added to 90 μL of 11.1 mU/mL enzyme solution, the mixture was incubated for 10 minutes after mixing. To start reaction, 100 μL of 200 μmol/L substrate solution was added to there, 10 minutes later, the reaction was stopped by addition of 500 μL of 0.5 mol/L sulfuric acid, and then absorbance at […] was measured. Final concentration of test compound was a single concentration, 10 μmol/L in single well for initial screening and 6 concentrations, 10, 1 μmol/L, 100, 10, 1 nmol/L, 100 pmol/L in duplicate for assay to calculate 50% inhibitory concentration (IC50) which were used for assay. Percent inhibition was calculated according to the formula described below. Percent inhibition (%)=(A−B)/(A−C)×100
In formula, A means absorbance in wells without test compound, B means absorbance in wells with test compound, C means absorbance in blank wells.
IC50 value was calculated from percent inhibition in each concentration by nonlinear regression method.

[2] = test system: potassium oxonate induced hyperuricemia; assay: Blood hypouricemic effect, potassium oxonate induced hyperuricemia; format: in vivo; settings: Rattus norvegicus, po; 10 mg/kg orally; male SD rats; serum 2 hours after administration; read-out: Decrease (%) in UA concentration
Procedure: Effect of compound of the present invention as a test compound was studied on potassium oxonate induced hyperuricemia with male 7-week-old SD rats (Charles River Japan) and potassium oxonate (Aldrich) suspended in 1% gum arabic solution. Test compound was suspended in 0.5% CMC-Na solution, and then administered orally. Dosing was 10 mg/kg or 50 mg/kg. All volume of administered solution was 10 mL/kg. Potassium oxonate 250 mg/kg was administered to dorsal region of rats subcutaneously, 1 hour later each test compound was administered orally. For control group, only 0.5% CMC-Na solution as a vehicle was administrated. At 2 hours after administration of test compounds or vehicle, blood was collected under ether anesthesia, and serum was separated according to general method. Treated number was 5 for each group.
Measurement of concentration of uric acid was conducted with following prepared reagents. The deproteinization reagent was prepared in the following manner; 100 g of sodium tungstate was added to a 2 L flask, and exactly 75 mL of 85% phosphoric acid and 500 mL of water were added to the flask equipped with a reflux condenser, and heated for an hour. After cooling, the resulting faint yellow-green solution was diluted to 1 L exactly. Sodium carbonate-urea reagent was prepared in the following manner; 14 g of anhydrous sodium carbonate and 14 g of urea were dissolved in water and final volume of the solution was adjusted to 100 mL exactly. Phosphotungstic coloring reagent was prepared in 4-fold dilution of deproteinzation reagent described above with water. UA standard solution (10 mg/dL: Kyokuto pharmaceutical industrial CO., LTD) was used as an uric acid standard solution, and then serially diluted uric acid standard solution with purified water was also used for standard curve.
Three hundred μL of serum or standard was added to 2.1 mL of purified water, and then 150 μL of deproteination reagent was also added to the solution, followed by mixing. After incubating for 20 minutes, the mixture was centrifuged at 3000 rpm for 10 minutes. Sodium carbonate-urea reagent (0.5 mL) was added to 1.5 mL of supernatant, and the mixture was incubated for 20 minutes. Next, after addition of 250 μL of coloring reagent, further incubation was carried over 15 minutes. Absorbance at 660 nm was measured, and concentration of uric acid was calculated with standard curve. Percent decrease in concentration of uric acid was calculated by following formula. Percent decrease in concentration of uric acid (%)=(A−B)/A×100
In formula, A means average of concentration of blood uric acid in control group, B means average of concentration of blood uric acid in test compounds-treated group.

[3] = target: T2, HEK293 cells forced to express URAT1 (Homo sapiens, UniProt Q96S37); assay: URAT1 inhibitory effect, [8-14C] uric acid uptake; format: cell-based; settings: test compound 100 μmol/L, 20 μmol/L uric acid, 5 minutes uptake
T2 construct: host or cells: HEK293
T2 sequence (Q96S37 1-553): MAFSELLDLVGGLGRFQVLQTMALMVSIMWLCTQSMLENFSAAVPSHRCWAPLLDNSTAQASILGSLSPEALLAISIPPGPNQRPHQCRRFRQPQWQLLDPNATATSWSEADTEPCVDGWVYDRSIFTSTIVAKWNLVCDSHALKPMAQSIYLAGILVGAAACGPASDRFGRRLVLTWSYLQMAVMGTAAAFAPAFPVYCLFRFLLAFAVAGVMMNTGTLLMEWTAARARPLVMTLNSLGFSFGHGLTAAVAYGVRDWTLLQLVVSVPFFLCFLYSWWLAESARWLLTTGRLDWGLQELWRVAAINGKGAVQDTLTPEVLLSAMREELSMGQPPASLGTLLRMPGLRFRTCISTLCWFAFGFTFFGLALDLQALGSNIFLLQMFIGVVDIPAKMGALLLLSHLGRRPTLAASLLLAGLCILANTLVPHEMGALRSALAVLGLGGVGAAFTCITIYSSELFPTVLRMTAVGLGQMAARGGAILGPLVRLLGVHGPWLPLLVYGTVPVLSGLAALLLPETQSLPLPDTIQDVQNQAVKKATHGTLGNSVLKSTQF
Excerpt: DMEM containing 10% FBS (supplemented with 0.05% geneticin, Nissui Pharmaceutical Co., Ltd.), HEK293 cells forced to express URAT1 (HCS (Human cell Systems), (Fuji Biomedix)), HBSS as washing buffer and HBSS substituted with Na-gluconate (NaCl in HBSS was substituted with Na-gluconate) were used for assay. [8-^14C] uric acid (moravek) was used as an uric acid reagent and added to assay buffer at 20 μmol/L as a final concentration. Compounds of the present invention were used as a test compound, 20 mmol/L stock solution of each test compound (DMSO solution) was diluted appropriately, and then the diluted test compound solution was added to assay buffer at 100 μmol/L as a final concentration including 0.5% final concentration of DMSO.
To prepare assay plates, at first, cells on subculture petri dish were peeled off using treatment of 0.05% trypsin-EDTA solution, and then seeded on Biocoat Poly-D-Lysine Cellware 24 well plate (BECTON DICKINSON) at a density of 2×10^5 cells/well and cultured for 2 days.
For the uptake study, at first, culture medium was removed by aspiration and cells were washed twice with HBSS (37° C.), then the buffer was replaced with 1 mL of assay buffer (37° C.). Cells were pre-incubated for 10 minutes. And then, the buffer was removed by aspiration and 0.5 mL of radioisotope ligand solution incubated at 37° C. was added, then cells were incubated for 5 minutes. After uptake, radioisotope solution was removed by aspiration, and immediately cells were washed three times with ice-cold HBSS, followed by resolving by addition of 0.5 mL of 0.5 mol/L NaOH. Cell lysate solution was transferred to a vial or 24 well plate for Betaplate, and mixed with 0.5 mL of liquid scintillator (Optiphase ‘Super Mix’; Perkin Elmer). Radioisotope activity was measured (using Betaplate 1450). As mean count in control solution not including test compound was 100%, percent inhibition was calculated by determining percent decrease in mean count in solution including test compound from mean count in control solution.

T1 sequence (P80457 whole entry): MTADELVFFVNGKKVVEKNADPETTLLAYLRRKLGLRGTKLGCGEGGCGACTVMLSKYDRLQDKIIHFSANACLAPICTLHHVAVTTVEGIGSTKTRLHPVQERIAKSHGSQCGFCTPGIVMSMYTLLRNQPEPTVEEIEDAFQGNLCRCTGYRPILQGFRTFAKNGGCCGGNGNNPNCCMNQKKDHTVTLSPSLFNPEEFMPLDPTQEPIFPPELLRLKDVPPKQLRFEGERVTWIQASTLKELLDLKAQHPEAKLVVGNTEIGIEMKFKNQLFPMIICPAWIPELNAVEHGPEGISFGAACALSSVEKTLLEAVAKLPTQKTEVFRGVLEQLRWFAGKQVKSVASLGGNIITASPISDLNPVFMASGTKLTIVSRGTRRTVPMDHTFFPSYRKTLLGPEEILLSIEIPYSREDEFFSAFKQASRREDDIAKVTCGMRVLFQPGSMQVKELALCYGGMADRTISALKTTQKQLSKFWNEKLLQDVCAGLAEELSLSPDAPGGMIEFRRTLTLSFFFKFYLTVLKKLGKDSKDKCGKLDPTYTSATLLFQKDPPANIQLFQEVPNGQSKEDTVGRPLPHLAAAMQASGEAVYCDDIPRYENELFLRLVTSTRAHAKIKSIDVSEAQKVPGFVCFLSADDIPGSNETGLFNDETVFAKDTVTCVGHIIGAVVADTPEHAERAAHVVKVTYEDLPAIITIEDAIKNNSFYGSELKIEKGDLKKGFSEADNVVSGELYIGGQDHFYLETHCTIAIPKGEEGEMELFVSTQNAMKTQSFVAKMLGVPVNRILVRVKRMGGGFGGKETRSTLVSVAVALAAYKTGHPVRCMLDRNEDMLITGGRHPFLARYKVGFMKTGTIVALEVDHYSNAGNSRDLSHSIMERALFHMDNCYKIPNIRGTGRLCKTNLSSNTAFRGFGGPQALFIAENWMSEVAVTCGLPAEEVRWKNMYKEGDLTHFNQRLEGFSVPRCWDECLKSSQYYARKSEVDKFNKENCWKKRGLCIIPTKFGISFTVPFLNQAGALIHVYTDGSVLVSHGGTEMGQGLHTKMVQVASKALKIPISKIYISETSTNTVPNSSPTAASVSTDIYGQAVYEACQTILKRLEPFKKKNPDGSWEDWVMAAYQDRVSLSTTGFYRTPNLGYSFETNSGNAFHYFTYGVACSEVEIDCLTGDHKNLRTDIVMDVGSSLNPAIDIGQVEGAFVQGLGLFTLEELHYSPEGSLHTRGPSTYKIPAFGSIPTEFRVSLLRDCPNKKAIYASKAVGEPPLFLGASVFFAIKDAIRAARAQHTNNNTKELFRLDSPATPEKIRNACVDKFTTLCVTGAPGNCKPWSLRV

Compound	IC50 [1] [nM]	inhibition in vivo at 10 mg/kg [2] [%]	inhibition at 100 µM [3] [%]
N#Cc1cn(-c2ccc(C(=O)O)cc2)nc1-c1ccc(F)cc1 [XO-TT572]	4.12	56.1	–
N#Cc1cnc2c(c1)c(C#N)cn2-c1ccc(C(=O)O)cc1 [XO-KT20]	–	–	64.6
Cc1ccc(-c2nn(-c3ccc(C(=O)O)cc3)cc2C#N)s1 [XO-TT554]	5.44	60.5	–
N#Cc1cn(-c2ccc(C(=O)O)cc2)nc1-c1ccccc1C(F)(F)F [XO-TT561]	8.47	–	–
Cc1c(-c2ccccc2)c(C#N)cn1-c1ccc(C(=O)O)cc1 [XO-B440]	15.2	57.6	–
N#Cc1cn(-c2ccc(C(=O)O)cc2)c2ncccc12 [XO-KT10]	–	–	92.3
N#Cc1cn(-c2ccc(C(=O)O)cc2)cc1-c1ccc(Cl)cc1 [XO-B421]	5.71	57.8	–
Cc1ccccc1-c1nn(-c2ccc(C(=O)O)cc2)cc1C#N [XO-TT573]	4	66.3	–
N#Cc1cn(-c2ccc(C(=O)O)cc2)cc1-c1ccccc1F [XO-B436]	3.71	77.3	–
N#Cc1cn(-c2ccc(C(=O)O)cc2)nc1-c1ccccc1 [XO-TT469]	8.18	75	–
N#Cc1cn(-c2ccc(C(=O)O)cc2)cc1-c1ccccc1Cl [XO-B397]	5.24	76.7	–
N#Cc1cn(-c2ccc(C(=O)O)cc2)nc1-c1ccccc1Cl [XO-TT524]	5.18	68.7	–
COc1cccc(-c2nn(-c3ccc(C(=O)O)cc3)cc2C#N)c1 [XO-TT552]	5.59	–	–
COc1ccc(-c2cn(-c3ccc(C(=O)O)cc3)cc2C#N)cc1 [XO-B422]	3.56	79	–
N#Cc1cn(-c2ccc(C(=O)O)cc2)c2nc(Cl)ccc12 [XO-KT18]	–	–	95.2
N#Cc1nn(-c2ccc(C(=O)O)cc2)c2ccccc12 [XO-KT30]	–	–	79.9
N#Cc1cn(-c2ccc(C(=O)O)cc2)cc1-c1ccc(F)cc1 [XO-B438]	5.03	69.3	–
Cc1c(C#N)c2ccccc2n1-c1ccc(C(=O)O)cc1 [XO-CH172]	–	–	88.3

Compound	IC50 [1] [nM]	inhibition in vivo at 10 mg/kg [2] [%]	inhibition at 100 µM [3] [%]
Cn1cccc1-c1cn(-c2ccc(C(=O)O)cc2)cc1C#N [XO-B410]	5	59.1	–
Cc1ccc(-c2nn(-c3ccc(C(=O)O)cc3)cc2C#N)cc1 [XO-TT537]	4.86	–	–
N#Cc1cn(-c2ccc(-c3nnn[nH]3)cc2)nc1-c1ccccc1 [XO-TT473]	16	–	–
COc1ccc(-c2nn(-c3ccc(C(=O)O)cc3)cc2C#N)cc1 [XO-TT544]	3.77	71.1	–
COc1ccccc1-c1nn(-c2ccc(C(=O)O)cc2)cc1C#N [XO-TT574]	5.52	–	–
N#Cc1cn(-c2ccc(C(=O)O)cc2)nc1-c1ccccc1F [XO-TT559]	2.91	75.9	–
Cc1ccc(-c2cn(-c3ccc(C(=O)O)cc3)cc2C#N)s1 [XO-B399-2]	5.56	69.4	–
COc1ccccc1-c1cn(-c2ccc(C(=O)O)cc2)cc1C#N [XO-B403]	5.98	62.1	–
N#Cc1cn(-c2ccc(C(=O)O)cc2)cc1-c1ccc(C(F)(F)F)cc1 [XO-B428]	5.09	68.3	–
Cc1ccsc1-c1nn(-c2ccc(C(=O)O)cc2)cc1C#N [XO-TT545]	5.21	75.8	–
Cc1ccccc1-c1cn(-c2ccc(C(=O)O)cc2)cc1C#N [XO-B395-1]	3.59	79.1	–
N#Cc1cn(-c2ccc(C(=O)O)cc2)cc1-c1ccc(Cl)s1 [XO-B414]	5.86	67.1	–
Cc1ccc(-c2cn(-c3ccc(C(=O)O)cc3)cc2C#N)cc1 [XO-B423]	4.26	66.6	–
N#Cc1cn(-c2ccc(C(=O)O)cc2)cc1-c1nccs1 [XO-B420]	6.33	–	–
N#Cc1cn(-c2ccc(C(=O)O)cc2)c2cc(C(F)(F)F)ccc12 [XO-CH206]	–	–	98.1
N#Cc1cn(-c2ccc(C(=O)O)cc2)cc1-c1ccccc1 [XO-B327]	4.9	74.1	–
N#Cc1nn(-c2ccc(C(=O)O)cc2)nc1-c1ccccc1 [XO-B366]	77.7	–	–
